Like-named read-outs stand apart in the source and are kept apart here.
Key:
[1] = tested on: human multiple myeloma cell line, OPM-2; assay: Cell viability assay (OPM-2 10 FBS), CellTiter-Glo; format: cell-based
Method in brief: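 3000 cells/well, RPMI 1640 + 10% FBS; serial compound dilutions, 16 h, 37 °C/5% CO2.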

[2] = target: recombinant human Mcl-1 (residues 171-327) / Bim interaction (Homo sapiens (Human), UniProt Q07820); assay: biochemical; format: binding; conditions: read-out: Mcl-1 HTRF IC50
[3] = read-out: OPM-2 10% FBS IC50 IP, OPM-2 cells, 10% FBS, 16 h, CellTiter-Glo
[4] = TR-FRET, Mcl-1(171-327) / biotin-Bim (51-76)
[5] = Homo sapiens, OPM-2, 16 h, read-out: OPM-2 10% FBS IC50 IP, OPM-2 cells, 10% FBS, 16 h incubation
[6] = 0.1 nM Mcl-1(171-327), 0.05 nM biotin-Bim (51-76)
[7] = Homo sapiens, OPM-2, 16 h, read-out: OPM-2 10% FBS IC50 IP, OPM-2 cells, 10% FBS, 16 h, CellTiter-Glo

recombinant human Mcl-1 (residues 171-327) / Bim interaction, sequence (Q07820 171-327): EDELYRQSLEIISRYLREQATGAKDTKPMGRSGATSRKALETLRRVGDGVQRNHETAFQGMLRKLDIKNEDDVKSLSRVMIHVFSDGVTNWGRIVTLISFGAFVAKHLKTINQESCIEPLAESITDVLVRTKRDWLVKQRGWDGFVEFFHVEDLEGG

SMILES	IC50 [1, 3]	IC50 [2, 4]	IC50 [1, 5]	IC50 [2, 6]	also measured
C=CC[C@]1(O)CCC[C@H](C)[C@@H](C)S(=O)(=O)NC(=O)c2ccc3c(c2)N(C[C@@H]2CC[C@H]21)C[C@@]1(CCCc2cc(Cl)ccc21)CO3 (single isomer, unassigned) [Example 100266]	571 nM	0.292 nM	–	–	–
C[C@@H]1[C@@H](C)CCC[C@@](O)(CS(=O)(=O)N(C)C)[C@@H]2CC[C@H]2CN2C[C@@]3(CCCc4cc(Cl)ccc43)COc3ccc(cc32)C(=O)NS1(=O)=O [Example 100099, 1-((1S,3′R,6′R,7′S,11′S,12′R)-6-chloro-7′-hydroxy-11′,12′-dimethyl-13′,13′-dioxido-15′-oxo-3,4-dihydro-2H-spiro[naphthalene-1,22′-[20]oxa[13]thia[1,14]diazatetracyclo [14.7.2.0~3,6~.0~19,24~]pentacosa[16,18,24]trien]-7′-yl)-N,N-dimethylmethanesulfonamide]	349 nM	–	–	–	IC50 [2]: 0.659 nM
CO[C@@]1(CN2CCC=C(F)C2)/C=C/C[C@H](C)[C@@H](C)S(=O)(=O)NC(=O)c2ccc3c(c2)N(C[C@@H]2CC[C@H]21)C[C@@]1(CCCc2cc(Cl)ccc21)CO3 [Example 68, (1S,3′R,6′R,7′S,8′E,11′S,12′R)-6-chloro-7′-((5-fluoro-3,6-dihydro-1(2H)-pyridinyl)methyl)-7′-methoxy-11′,12′-dimethyl-3,4-dihydro-2H,15′H-spiro[naphthalene-1,22′-[20]oxa[13]thia[1,14]diazatetracyclo [14.7.2.0~3,6~.0~19,24~]pentacosa[8,16,18,24]tetraen]-15′-one 13′,13′-dioxide]	–	–	1520 nM	0.397 nM	–
C[C@@H]1[C@@H](C)CCC[C@@](O)(CS(=O)(=O)N(C)C(C)(C)C)[C@@H]2CC[C@H]2CN2C[C@@]3(CCCc4cc(Cl)ccc43)COc3ccc(cc32)C(=O)NS1(=O)=O [Example 100169, 1-((1S,3′R,6′R,7′S,11′S,12′R)-6-chloro-7′-hydroxy-11′,12′-dimethyl-13′,13′-dioxido-15′-oxo-3,4-dihydro-2H-spiro[naphthalene-1,22′-[20]oxa[13]thia[1,14]diazatetracyclo [14.7.2.0~3,6~.0~19,24~]pentacosa[16,18,24]trien]-7′-yl)-N-methyl-N-(2-methyl-2-propanyl)methanesulfonamide]	2270 nM	4.83 nM	–	–	–
C[C@@H]1[C@@H](C)CCC[C@@](O)(CS(=O)(=O)N2CCN(C)CC2)[C@@H]2CC[C@H]2CN2C[C@@]3(CCCc4cc(Cl)ccc43)COc3ccc(cc32)C(=O)NS1(=O)=O [Example 100138, (1S,3′R,6′R,7′S,11′S,12′R)-6-chloro-7′-hydroxy-11′,12′-dimethyl-7′-(((4-methyl-1-piperazinyl)sulfonyl)methyl)-3,4-dihydro-2H,15′H-spiro[naphthalene-1,22′-[20]oxa[13]thia[1,14]diazatetracyclo [14.7.2.0~3,6~.0~19,24~]pentacosa[16,18,24]trien]-15′-one 13′,13′-dioxide]	342 nM	0.549 nM	–	–	–
CO[C@@]1(CN2CCN3CCOC[C@@H]3C2)/C=C/C[C@H](C)[C@@H](C)S(=O)(=O)NC(=O)c2ccc3c(c2)N(C[C@@H]2CC[C@H]21)C[C@@]1(CCCc2cc(Cl)ccc21)CO3 [Example 56, (1S,3′R,6′R,7′S,8′E,11′S,12′R)-6-chloro-7′-((9aS)-hexahydropyrazino[2,1-c][1,4]oxazin-8(1H)-ylmethyl)-7′-methoxy-11′,12′-dimethyl-3,4-dihydro-2H,15′H-spiro[naphthalene-1,22′-[20]oxa[13]thia[1,14]diazatetracyclo [14.7.2.0~3,6~.0~19,24~]pentacosa[8,16,18,24]tetraen]-15′-one 13′,13′-dioxide]	–	–	79 nM	0.083 nM	–
CO[C@]1(CN2CCN3C(=O)COC[C@@H]3C2)/C=C/C[C@H](C)[C@@H](C)S(=O)(=O)NC(=O)c2ccc3c(c2)N(C[C@@H]2CC[C@H]21)C[C@@]1(CCCc2cc(Cl)ccc21)CO3 [Example 140, (1S,3′R,6′R,7′R,8′E,11′S,12′R)-6-chloro-7′-methoxy-11′,12′-dimethyl-7′-(((9aS)-4-oxohexahydropyrazino[2,1-c][1,4]oxazin-8(1H)-yl)methyl)-3,4-dihydro-2H,15′H-spiro[naphthalene-1,22′-[20]oxa[13]thia[1,14]diazatetracyclo [14.7.2.0~3,6~.0~19,24~]pentacosa[8,16,18,24]tetraen]-15′-one 13′,13′-dioxide]	–	–	125 nM	0.098 nM	–
COCCN1CCN(C[C@@]2(OC)/C=C/C[C@H](C)[C@@H](C)S(=O)(=O)NC(=O)c3ccc4c(c3)N(C[C@@H]3CC[C@H]32)C[C@@]2(CCCc3cc(Cl)ccc32)CO4)CC1=O [Example 54, (1S,3′R,6′R,7′R,8′E,11′S,12′R)-6-chloro-7′-methoxy-7′-((4-(2-methoxyethyl)-3-oxo-1-piperazinyl)methyl)-11′,12′-dimethyl-3,4-dihydro-2H,15′H-spiro[naphthalene-1,22′-[20]oxa[13]thia[1,14]diazatetracyclo [14.7.2.0~3,6~.0~19,24~]pentacosa[8,16,18,24]tetraen]-15′-one 13′,13′-dioxide]	–	–	129 nM	0.173 nM	–
CCC(=O)C[C@]1(OC)/C=C/C[C@H](C)[C@@H](C)S(=O)(=O)NC(=O)c2ccc3c(c2)N(C[C@@H]2CC[C@H]21)C[C@@]1(CCCc2cc(Cl)ccc21)CO3 [Example 100457, (1S,3′R,6′R,7′S,8′E,11′S,12′R)-6-chloro-7′-methoxy-11′,12′-dimethyl-7′-(2-oxobutyl)-3,4-dihydro-2H,15′H-spiro[naphthalene-1,22′-[20]oxa[13]thia[1,14]diazatetracyclo [14.7.2.0~3,6~.0~19,24~]pentacosa[8,16,18,24]tetraen]-15′-one 13′,13′-dioxide]	–	0.331 nM	–	–	IC50 [1, 7]: 967 nM
C[C@@H]1[C@@H](C)CCC[C@@](O)(CC(=O)N2CCC2)[C@@H]2CC[C@H]2CN2C[C@@]3(CCCc4cc(Cl)ccc43)COc3ccc(cc32)C(=O)NS1(=O)=O [Example 100145, (1S,3′R,6′R,7′R,11′S,12′R)-7′-(2-(1-azetidinyl)-2-oxoethyl)-6-chloro-7′-hydroxy-11′,12′-dimethyl-3,4-dihydro-2H,15′H-spiro[naphthalene-1,22′-[20]oxa[13]thia[1,14]diazatetracyclo [14.7.2.0~3,6~.0~19,24~]pentacosa[16,18,24]trien]-15′-one 13′,13′-dioxide]	945 nM	0.357 nM	–	–	–
CCO[C@]1(CN2CCN3CCS(=O)(=O)C[C@@H]3C2)/C=C/C[C@H](C)[C@@H](C)S(=O)(=O)NC(=O)c2ccc3c(c2)N(C[C@@H]2CC[C@H]21)C[C@@]1(CCCc2cc(Cl)ccc21)CO3 [Example 122]	–	–	–	0.087 nM	IC50 ([1]; read-out: OPM-2 10% FBS IC50 IP, OPM-2 cells, 10% FBS, 16 h incubation): 138 nM
Cc1cc(C[C@@]2(O)/C=C/C[C@H](C)[C@@H](C)S(=O)(=O)NC(=O)c3ccc4c(c3)N(C[C@@H]3CC[C@H]32)C[C@@]2(CCCc3cc(Cl)ccc32)CO4)no1 [Example 100540, (1S,3′R,6′R,7′R,8′E,11′S,12′R)-6-chloro-7′-hydroxy-11′,12′-dimethyl-7′-((5-methyl-1,2-oxazol-3-yl)methyl)-3,4-dihydro-2H,15′H-spiro[naphthalene-1,22′-[20]oxa[13]thia[1,14]diazatetracyclo [14.7.2.0~3,6~.0~19,24~]pentacosa[8,16,18,24]tetraen]-15′-one 13′,13′-dioxide]	–	0.275 nM	–	–	IC50 [1, 7]: 320 nM
C[C@H](C(=O)O)[C@@]1(O)/C=C/C[C@H](C)[C@@H](C)S(=O)(=O)NC(=O)c2ccc3c(c2)N(C[C@@H]2CC[C@H]21)C[C@@]1(CCCc2cc(Cl)ccc21)CO3 (single isomer, unassigned) [Example 100122]	1190 nM	0.098 nM	–	–	–
C[C@@H]1[C@@H](C)C/C=C/[C@@](O)(CC(=O)N2CCN3CCOC[C@@H]3C2)[C@@H]2CC[C@H]2CN2C[C@@]3(CCCc4cc(Cl)ccc43)COc3ccc(cc32)C(=O)NS1(=O)=O [Example 100305, (1S,3′R,6′R,7′S,8′E,11′S,12′R)-6-chloro-7′-(2-((9aS)-hexahydropyrazino[2,1-c][1,4]oxazin-8(1H)-yl)-2-oxoethyl)-7′-hydroxy-11′,12′-dimethyl-3,4-dihydro-2H,15′H-spiro[naphthalene-1,22′-[20]oxa[13]thia[1,14]diazatetracyclo [14.7.2.0~3,6~.0~19,24~]pentacosa[8,16,18,24]tetraen]-15′-one 13′,13′-dioxide]	–	0.473 nM	–	–	IC50 [1, 7]: 1140 nM
CCO[C@]1(CN2CCN(C(C)(C)C)CC2)/C=C/C[C@H](C)[C@@H](CCOC)S(=O)(=O)NC(=O)c2ccc3c(c2)N(C[C@@H]2CC[C@H]21)C[C@@]1(CCCc2cc(Cl)ccc21)CO3 [Example 190, (1S,3′R,6′R,7′R,8′E,11′S,12′R)-7′-((4-tert-butyl-1-piperazinyl)methyl)-6-chloro-7′-ethoxy-12′-(2-methoxyethyl)-11′-methyl-3,4-dihydro-2H,15′H-spiro[naphthalene-1,22′-[20]oxa[13]thia[1,14]diazatetracyclo [14.7.2.0~3,6~.0~19,24~]pentacosa[8,16,18,24]tetraen]-15′-one 13′,13′-dioxide]	–	–	53 nM	0.087 nM	–
